Laboratory results as given in the supplement of paper PMC13380429.

Legend:
Settings in all cases: 72 h
Caco-2 [1] = test: drug sensitivity score (DSS) for viability; higher = more toxic; extreme values may be limits of the assay
HepG2 [2] = test: as above
Vero E6 [3] = test: as above
U2OS [4] = test: as above
Calu-3 [5] = test: as above
Caco-2 [6] = test: cell viability relative to DMSO; higher = less toxic
HepG2 [7] = test: as above
Vero E6 [8] = test: as above
U2OS [9] = test: as above
Calu-3 [10] = test: as above
Caco-2 [11] = test: relative viability EC50 (midpoint between 100% and the lowest measured viability); higher = less toxic
HepG2 [12] = test: as above
Vero E6 [13] = test: as above
U2OS [14] = test: as above
Calu-3 [15] = test: as above

## CC(C)CN(C[C@@H](O)[C@H](Cc1ccccc1)NC(=O)O[C@H]1CCOC1)S(=O)(=O)c1ccc(N)cc1 [amprenavir]
Caco-2 [1]
  drug sensitivity score: 0.6
HepG2 [2]
  drug sensitivity score: 0
Vero E6 [3]
  drug sensitivity score: 0
U2OS [4]
  drug sensitivity score: 0
Calu-3 [5]
  drug sensitivity score: 0
Caco-2 [6]; 1 nM
  cell viability: 103%
Caco-2 [6]; 10 nM
  cell viability: 100%
Caco-2 [6]; 100 nM
  cell viability: 106%
Caco-2 [6]; 1000 nM
  cell viability: 87.2%
Caco-2 [6]; 10000 nM
  cell viability: 87.7%
HepG2 [7]; 1 nM
  cell viability: 114%
HepG2 [7]; 10 nM
  cell viability: 88.9%
HepG2 [7]; 100 nM
  cell viability: 92.7%
HepG2 [7]; 1000 nM
  cell viability: 96.5%
HepG2 [7]; 10000 nM
  cell viability: 87.7%
Vero E6 [8]; 1 nM
  cell viability: 110%
Vero E6 [8]; 10 nM
  cell viability: 102%
Vero E6 [8]; 100 nM
  cell viability: 93.9%
Vero E6 [8]; 1000 nM
  cell viability: 101%
Vero E6 [8]; 10000 nM
  cell viability: 93.4%
U2OS [9]; 1 nM
  cell viability: 106%
U2OS [9]; 10 nM
  cell viability: 97.8%
U2OS [9]; 100 nM
  cell viability: 96.5%
U2OS [9]; 1000 nM
  cell viability: 98.6%
U2OS [9]; 10000 nM
  cell viability: 101%
Calu-3 [10]; 1 nM
  cell viability: 101%
Calu-3 [10]; 10 nM
  cell viability: 102%
Calu-3 [10]; 100 nM
  cell viability: 99.3%
Calu-3 [10]; 1000 nM
  cell viability: 97.7%
Calu-3 [10]; 10000 nM
  cell viability: 107%
Caco-2 [11]
  relative viability EC50: > 10 µM
HepG2 [12]
  relative viability EC50: > 10 µM
Vero E6 [13]
  relative viability EC50: > 10 µM
U2OS [14]
  relative viability EC50: > 10 µM
Calu-3 [15]
  relative viability EC50: > 10 µM

## CN(C)C/C=C/C(=O)Nc1cc2c(Nc3ccc(F)c(Cl)c3)ncnc2cc1O[C@H]1CCOC1 [afatinib]
Caco-2 [1]
  drug sensitivity score: 7.2
HepG2 [2]
  drug sensitivity score: 5
Vero E6 [3]
  drug sensitivity score: 14.2
U2OS [4]
  drug sensitivity score: 6.2
Calu-3 [5]
  drug sensitivity score: 27.9
Caco-2 [6]; 1 nM
  cell viability: 109%
Caco-2 [6]; 10 nM
  cell viability: 90.4%
Caco-2 [6]; 100 nM
  cell viability: 83%
Caco-2 [6]; 1000 nM
  cell viability: 73.4%
Caco-2 [6]; 10000 nM
  cell viability: 46.1%
HepG2 [7]; 1 nM
  cell viability: 117%
HepG2 [7]; 10 nM
  cell viability: 96.1%
HepG2 [7]; 100 nM
  cell viability: 104%
HepG2 [7]; 1000 nM
  cell viability: 93.7%
HepG2 [7]; 10000 nM
  cell viability: 27.6%
Vero E6 [8]; 1 nM
  cell viability: 101%
Vero E6 [8]; 10 nM
  cell viability: 93.7%
Vero E6 [8]; 100 nM
  cell viability: 66%
Vero E6 [8]; 1000 nM
  cell viability: 51.7%
Vero E6 [8]; 10000 nM
  cell viability: 3.8%
U2OS [9]; 1 nM
  cell viability: 95.8%
U2OS [9]; 10 nM
  cell viability: 100%
U2OS [9]; 100 nM
  cell viability: 93.2%
U2OS [9]; 1000 nM
  cell viability: 91.1%
U2OS [9]; 10000 nM
  cell viability: 13.6%
Calu-3 [10]; 1 nM
  cell viability: 88.7%
Calu-3 [10]; 10 nM
  cell viability: 57.8%
Calu-3 [10]; 100 nM
  cell viability: 32.1%
Calu-3 [10]; 1000 nM
  cell viability: 28.8%
Calu-3 [10]; 10000 nM
  cell viability: 9.1%
Caco-2 [11]
  relative viability EC50: 0.496 µM
HepG2 [12]
  relative viability EC50: 2.45 µM
Vero E6 [13]
  relative viability EC50: 0.465 µM
U2OS [14]
  relative viability EC50: 2.32 µM
Calu-3 [15]
  relative viability EC50: 0.0181 µM

## CCCCCCCCCCCCCCSCC(=O)O [tetradecylthioacetic-acid]
Caco-2 [1]
  drug sensitivity score: 0
HepG2 [2]
  drug sensitivity score: 0
Vero E6 [3]
  drug sensitivity score: 0
U2OS [4]
  drug sensitivity score: 0
Calu-3 [5]
  drug sensitivity score: 0
Caco-2 [6]; 1 nM
  cell viability: 93.1%
Caco-2 [6]; 10 nM
  cell viability: 104%
Caco-2 [6]; 100 nM
  cell viability: 104%
Caco-2 [6]; 1000 nM
  cell viability: 83.9%
Caco-2 [6]; 10000 nM
  cell viability: 108%
HepG2 [7]; 1 nM
  cell viability: 90.8%
HepG2 [7]; 10 nM
  cell viability: 102%
HepG2 [7]; 100 nM
  cell viability: 86.4%
HepG2 [7]; 1000 nM
  cell viability: 102%
HepG2 [7]; 10000 nM
  cell viability: 119%
Vero E6 [8]; 1 nM
  cell viability: 103%
Vero E6 [8]; 10 nM
  cell viability: 95.6%
Vero E6 [8]; 100 nM
  cell viability: 98.2%
Vero E6 [8]; 1000 nM
  cell viability: 99.2%
Vero E6 [8]; 10000 nM
  cell viability: 94.6%
U2OS [9]; 1 nM
  cell viability: 98.1%
U2OS [9]; 10 nM
  cell viability: 101%
U2OS [9]; 100 nM
  cell viability: 93.5%
U2OS [9]; 1000 nM
  cell viability: 97.2%
U2OS [9]; 10000 nM
  cell viability: 100%
Calu-3 [10]; 1 nM
  cell viability: 95.2%
Calu-3 [10]; 10 nM
  cell viability: 102%
Calu-3 [10]; 100 nM
  cell viability: 99.1%
Calu-3 [10]; 1000 nM
  cell viability: 108%
Calu-3 [10]; 10000 nM
  cell viability: 109%
Caco-2 [11]
  relative viability EC50: > 10 µM
HepG2 [12]
  relative viability EC50: > 10 µM
Vero E6 [13]
  relative viability EC50: > 10 µM
U2OS [14]
  relative viability EC50: > 10 µM
Calu-3 [15]
  relative viability EC50: > 10 µM

## CN1C/C=C/CCOc2cccc(c2)-c2ccnc(n2)Nc2cccc(c2)C1 [TG-02]
Caco-2 [1]
  drug sensitivity score: 16.2
HepG2 [2]
  drug sensitivity score: 19.3
Vero E6 [3]
  drug sensitivity score: 17.1
U2OS [4]
  drug sensitivity score: 20
Calu-3 [5]
  drug sensitivity score: 12.4
Caco-2 [6]; 1 nM
  cell viability: 89.8%
Caco-2 [6]; 10 nM
  cell viability: 88.2%
Caco-2 [6]; 100 nM
  cell viability: 70.4%
Caco-2 [6]; 1000 nM
  cell viability: 28.4%
Caco-2 [6]; 10000 nM
  cell viability: 38.9%
HepG2 [7]; 1 nM
  cell viability: 111%
HepG2 [7]; 10 nM
  cell viability: 104%
HepG2 [7]; 100 nM
  cell viability: 79.2%
HepG2 [7]; 1000 nM
  cell viability: 9.1%
HepG2 [7]; 10000 nM
  cell viability: 3.2%
Vero E6 [8]; 1 nM
  cell viability: 99.4%
Vero E6 [8]; 10 nM
  cell viability: 97.8%
Vero E6 [8]; 100 nM
  cell viability: 90%
Vero E6 [8]; 1000 nM
  cell viability: 13.6%
Vero E6 [8]; 10000 nM
  cell viability: 5.6%
U2OS [9]; 1 nM
  cell viability: 102%
U2OS [9]; 10 nM
  cell viability: 101%
U2OS [9]; 100 nM
  cell viability: 86%
U2OS [9]; 1000 nM
  cell viability: 2.5%
U2OS [9]; 10000 nM
  cell viability: 1.8%
Calu-3 [10]; 1 nM
  cell viability: 97.1%
Calu-3 [10]; 10 nM
  cell viability: 97.7%
Calu-3 [10]; 100 nM
  cell viability: 87.7%
Calu-3 [10]; 1000 nM
  cell viability: 43.4%
Calu-3 [10]; 10000 nM
  cell viability: 51.8%
Caco-2 [11]
  relative viability EC50: 0.105 µM
HepG2 [12]
  relative viability EC50: 0.207 µM
Vero E6 [13]
  relative viability EC50: 0.297 µM
U2OS [14]
  relative viability EC50: 0.204 µM
Calu-3 [15]
  relative viability EC50: 0.167 µM

## CCOCC(O)COc1ccc(NC(=O)CC[S+](C)C)cc1 (stereo not given) [suplatast]
Caco-2 [1]
  drug sensitivity score: 0
HepG2 [2]
  drug sensitivity score: 0
Vero E6 [3]
  drug sensitivity score: 0
U2OS [4]
  drug sensitivity score: 0
Calu-3 [5]
  drug sensitivity score: 0
Caco-2 [6]; 1 nM
  cell viability: 95.9%
Caco-2 [6]; 10 nM
  cell viability: 99%
Caco-2 [6]; 100 nM
  cell viability: 99.1%
Caco-2 [6]; 1000 nM
  cell viability: 98.5%
Caco-2 [6]; 10000 nM
  cell viability: 104%
HepG2 [7]; 1 nM
  cell viability: 93.8%
HepG2 [7]; 10 nM
  cell viability: 94.3%
HepG2 [7]; 100 nM
  cell viability: 85%
HepG2 [7]; 1000 nM
  cell viability: 91.2%
HepG2 [7]; 10000 nM
  cell viability: 94.1%
Vero E6 [8]; 1 nM
  cell viability: 87.8%
Vero E6 [8]; 10 nM
  cell viability: 98.2%
Vero E6 [8]; 100 nM
  cell viability: 93.3%
Vero E6 [8]; 1000 nM
  cell viability: 94.8%
Vero E6 [8]; 10000 nM
  cell viability: 104%
U2OS [9]; 1 nM
  cell viability: 99.1%
U2OS [9]; 10 nM
  cell viability: 96.4%
U2OS [9]; 100 nM
  cell viability: 100%
U2OS [9]; 1000 nM
  cell viability: 100%
U2OS [9]; 10000 nM
  cell viability: 101%
Calu-3 [10]; 1 nM
  cell viability: 94.8%
Calu-3 [10]; 10 nM
  cell viability: 93.1%
Calu-3 [10]; 100 nM
  cell viability: 93.4%
Calu-3 [10]; 1000 nM
  cell viability: 102%
Calu-3 [10]; 10000 nM
  cell viability: 101%
Caco-2 [11]
  relative viability EC50: > 10 µM
HepG2 [12]
  relative viability EC50: > 10 µM
Vero E6 [13]
  relative viability EC50: > 10 µM
U2OS [14]
  relative viability EC50: > 10 µM
Calu-3 [15]
  relative viability EC50: > 10 µM

## COc1cc(Nc2nc3ccccc3nc2NS(=O)(=O)c2ccc(NC(=O)c3ccc(C)c(OC)c3)cc2)cc(OC)c1
Caco-2 [1]
  drug sensitivity score: 0
HepG2 [2]
  drug sensitivity score: 0
Vero E6 [3]
  drug sensitivity score: 0
U2OS [4]
  drug sensitivity score: 0
Calu-3 [5]
  drug sensitivity score: 0
Caco-2 [6]; 1 nM
  cell viability: 95.4%
Caco-2 [6]; 10 nM
  cell viability: 100%
Caco-2 [6]; 100 nM
  cell viability: 96%
Caco-2 [6]; 1000 nM
  cell viability: 97.7%
Caco-2 [6]; 10000 nM
  cell viability: 103%
HepG2 [7]; 1 nM
  cell viability: 101%
HepG2 [7]; 10 nM
  cell viability: 83.8%
HepG2 [7]; 100 nM
  cell viability: 92.1%
HepG2 [7]; 1000 nM
  cell viability: 99.1%
HepG2 [7]; 10000 nM
  cell viability: 89.7%
Vero E6 [8]; 1 nM
  cell viability: 99.9%
Vero E6 [8]; 10 nM
  cell viability: 95.9%
Vero E6 [8]; 100 nM
  cell viability: 102%
Vero E6 [8]; 1000 nM
  cell viability: 95.7%
Vero E6 [8]; 10000 nM
  cell viability: 99.9%
U2OS [9]; 1 nM
  cell viability: 97%
U2OS [9]; 10 nM
  cell viability: 97.7%
U2OS [9]; 100 nM
  cell viability: 97.1%
U2OS [9]; 1000 nM
  cell viability: 95.9%
U2OS [9]; 10000 nM
  cell viability: 103%
Calu-3 [10]; 1 nM
  cell viability: 109%
Calu-3 [10]; 10 nM
  cell viability: 85.9%
Calu-3 [10]; 100 nM
  cell viability: 109%
Calu-3 [10]; 1000 nM
  cell viability: 94.4%
Calu-3 [10]; 10000 nM
  cell viability: 110%
Caco-2 [11]
  relative viability EC50: > 10 µM
HepG2 [12]
  relative viability EC50: > 10 µM
Vero E6 [13]
  relative viability EC50: > 10 µM
U2OS [14]
  relative viability EC50: > 10 µM
Calu-3 [15]
  relative viability EC50: > 10 µM
